Common to all, as to type: cell-based
One assay has as its system CCR5. Briefly: CCR5 staining with 6-TG selection in mPB CD34+ cells. The note with it: 100 nM of 6TG day 4 to 14, flow at day 14; without 6TG 44.9%. The method, then:
Assay protocols and results for CCR5 staining with 6-TG selection in sh734-KI mPB CD34+ cells (i.e. Mobilized CD34+ cells cultured with TPO/SCF/FLT3/IL3 and Knock-out of CCR5 and knock-in of sh734 in CD34+ cells)
Nanocapsules were formulated to contain CRISPR/Cas9/gRNAR targeting CCR5/mi-sh734 expression cassette HDR template CRISPR machinery complex (see methods). Cd34+ cells were thawed and pre-stimulated in x-vivo 10 with 100 ng/mL of TPO/SCF/FLT4/IL3 for overnight. Then 500 ng of Cas9-CCR5-gRNA-3G-mi-sh734 nanocapsules were added into 5×10^4 cells per well and 100 nM of 6TG was added into culture media from day 4 to 14. The flow analysis was carried out at day 14.
6-TG selection was examined using VCN/InDel data. mPB CD34+ were transfected/transduced as indicated in FIG. 8A Nanocapsules were formulated to contain CRISPR/Cas9/gRNAR targeting CCR5/mi-sh734 expression cassette HDR template CRISPR machinery complex (see methods). Cd34+ cells were thawed and prestimulated in X-vivo 10 with 100 ng/mL of TPO/SCF/FLT4/IL3 for overnight. Then 500 ng of Cas9-CCR5-gRNA-3G-mi-sh734 nanocapsules were added into 5×10^4 cells per well and 100 nM of 6TG was added into culture media from day 4 to 14. The flow analysis was carried out at day 14.

The next assay relates to CEM cells. Briefly: Negative selection with MTX or MPA on transduced or transfected CEM cells. To be noted: for GFP-population of transduced cells (HPRT knockdown): FIG. 10A, CEM experiment; for HPRT knockout population of CEM cells: FIG. 10B. On the procedure:
FIGS. 10A and 10B illustrate the effect of negative selection with 300 nM of MTX, 1 uM and 10 uM of MPA on CEM cells transduced with sh7-GFP lentiviral vector or transfected with RNP targeting HPRT1 nanocapsules.
Transduced or transfected CEM cells (such as those from Example 6) were cultured with or without MTX from day 0 to day 14. The medium was refreshed every 3 to 4 days. GFP was analyzed on flow machine and InDel % was analyzed by T7E1 assay.

Another assay concerns K562 cells. Briefly: Negative selection with MTX on transduced or transfected K562 cells. The note with it: 0.3 uM of MTX. On the procedure:
FIGS. 9A and 9B illustrate the effect of negative selection with 300 nM of MTX on K562 cells transduced with sh7-GFP lentiviral vector or transfected with RNP targeting HPRT1 nanocapsules.
Transduced or transfected K562 cells (such as those from Example 5) were cultured with or without MTX from day 0 to day 14. The medium was refreshed every 3 to 4 days. GFP was analyzed on flow machine and InDel % was analyzed by T7E1 assay. […] FIG. 9B illustrated that the transfected K562 cells were eliminated under treatment with 0.3 uM of MTX at a faster pace as compared with the HPRT-KD population.

Molecules are shown by their SMILES.

`Nc1nc2nc[nH]c2c(=S)[nH]1` [6TG, 6-thioguanine]: in the assay on CCR5, the “CCR5+ of CD34+ cells with 6TG treatment (no nanocapsule)” value is 43.4%.
Regarding `COc1c(C)c2c(c(O)c1C/C=C(\C)CCC(=O)O)C(=O)OC2` [MPA, mycophenolic acid], in the assay on CEM cells (1 uM of MPA), the “GFP-population of transduced cells (HPRT knockdown)” value (from here on “GFP-population of transduced cells”) is recorded as “decreased” and the “HPRT knockout population of CEM cells” value is “eliminated at a faster pace”. For the same compound, in the assay on CEM cells (10 uM of MPA), the “GFP-population of transduced cells” value was “decreased” and the “HPRT knockout population of CEM cells” value is on record as “eliminated at a faster pace”.
In the case of `CN(Cc1cnc2nc(N)nc(N)c2n1)c1ccc(C(=O)N[C@@H](CCC(=O)O)C(=O)O)cc1` [MTX, methotrexate], in the assay on K562 cells (FIG. 9A, day 0 to day 14), the “GFP-population of transduced K562 cells (HPRT knockdown)” value is recorded as “decreased”. The “transfected (HPRT knockout) K562 cells” value in the assay on K562 cells (FIG. 9B, compared with the HPRT-KD population) is “eliminated”. Further, in the assay with CEM cells (0.3 uM of MTX), the “GFP-population of transduced cells” value is “decreased” and the “HPRT knockout population of CEM cells” value was “eliminated at a faster pace”.
